Data: patent publication US9096832B2, “Differentiation of human embryonic stem cells” (LifeScan, Inc., priority 2007, dated 2015)
“And” between values parts separate entries of the source, which are not always exact repeats. Equal entries are not always repeated.

How the values were obtained:
Format in all cases: cell-based
[1] = system: human embryonic stem cell line H1 at passage 55; experiment: Definitive endoderm on human serum coated plates (real-time PCR); conditions: with activin A, vs activin A only
Protocol: Cultures of the human embryonic stem cell line H1 at passage 55 were grown and differentiated on human serum (Sigma, #H1388, MO) coated plates. 0.5 ml of human serum was added to each well of 6 well tissue culture treated dish, incubated for 1 hr at room temperature, and aspirated before adding human embryonic stem cells. […] These findings parallel our findings for human embryonic stem cells cultured on […]™ or human fibronectin coated plates.

[2] = system: human embryonic stem cell line H9; experiment: Cytokine array (RayBiotech) of cell lysates and conditioned media, Activin A +/- Wnt3a (Table VII); design: Angiogenin / BDNF / BMP-4 / BMP-6 / CK beta 8-1 / Eotaxin-3 / Flt-3 Ligand / Fractalkine / GCP-2 / GDNF / GM-CSF / I-309 / IFN-gamma / IGFBP-1 / IGFBP-2 / IGFBP-4 / IL-10 / IL-13 / IL-15 / IL-1alpha / IL-1beta / IL-1ra / IL-3 / IL-5 / Leptin / MCP-1 / MIP-1-delta / NT-3 / RANTES / SCF / TGF-beta 1 / TNF-beta / Acrp30 / AgRP / AxI / bFGF: unit not given here
Protocol: At passage 54, cells were differentiated in the presence of 100 ng/mlActivinA+/−10 ng/mlWnt3a for 2 days in 0.5% FBS DMEM/F12. […]
Cell lysates were prepared from cells of each treatment group, with a mammalian cell lysis kit (Sigma-Aldrich,MO). Conditioned media from each treatment group was collected and concentrated. Cytokine array analysis was completed using Cytokine Array panels provided by RayBiotech, GA (http://www.raybiotech.com/). […] For each panel, positive and negative controls are also included.

[3] = system: human embryonic stem cell line H9; experiment: Cells from […] differentiated on MEFs: role of Wnt-3a (real-time PCR, FACS)
Protocol: Cells from the human embryonic stem cell line H9 cultured on […]™ for at least five passages were seeded onto MEF feeders in ES media.
At day 3 and 5, the cultures were analyzed by real time PCR for SOX-17, SOX-7, Alpha-fetal protein (AFP), CXCR4, Brychyury (Bry), gooscecoid (GSC), HNF-3 beta, GATA4, hTERT and Oct4. AFP and SOX-7 are regarded as visceral endoderm markers while GATA4, HNF-3beta and SOX-17 represent definite endoderm markers and GSC, Bry, and CXCR4 represent markers of primitive streak. hTERT and Oct-4 are markers for self renewal and pluripotency respectively. FACS analysis was also performed at day 3 and 5.

[4] = Cell conditioned media, H9 day 5, samples 1,2
[5] = Cell lysate, H9 day 5, samples 1,2

Wnt-3a
expression of definitive endoderm markers [1]: Robust expression | Acrp30 [2, 4]: 2,795.71 and 2,302.99 | AgRP [2, 4]: 651.26 and 482.21 | Amphiregulin [2, 4]: 619.07 and 782.60 | Angiogenin [2, 4]: 57,442.48 and 54,969.04 | Angiopoietin-2 [2, 4]: 65,959.24 and 71,664.21 | AxI [2, 4]: 610.40 and 748.34 | BDNF [2, 4]: 770.08 and 715.86 | BLC [2, 4]: 337.12 and 249.80 | BMP-6 [2, 4]: 985.70 and 670.60 | CK beta 8-1 [2, 4]: 42.78 and 75.44 | CNTF [2, 4]: 787.19 and 541.51 | EGF [2, 4]: 23,331.57 and 22,768.53 | Eotaxin-2 [2, 4]: 2,156.21 and 1,445.14 | Eotaxin-3 [2, 4]: 2,140.81 and 1,480.35 | FGF-6 [2, 4]: 3,283.94 and 2,519.78 | Flt-3 Ligand [2, 4]: 511.67 and 792.98 | Fractalkine [2, 4]: 359.37 and 367.15 | GCP-2 [2, 4]: 451.78 and 362.12 | GDNF [2, 4]: 443.22 and 509.66 | GM-CSF [2, 4]: 1,808.82 and 1,446.82 | I-309 [2, 4]: 318.30 and 288.36 | IFN-gamma [2, 4]: 1,238.97 and 1,435.08 | IGF-I [2, 4]: 254.98 and 187.77 | IGFBP-1 [2, 4]: 227.60 and 155.91 | IGFBP-2 [2, 4]: 42,215.53 and 43,934.33 | IGFBP-4 [2, 4]: 18,988.34 and 13,380.14 | IL-1alpha [2, 4]: 3,999.26 and 3,545.79 | IL-1beta [2, 4]: 316.59 and 278.30 | IL-1ra [2, 4]: 354.23 and 581.75 | IL-2 [2, 4]: 758.10 and 881.84 | IL-3 [2, 4]: 11,345.78 and 12,174.73 | IL-4 [2, 4]: 804.30 and 673.95 | IL-5 [2, 4]: 2,120.27 and 1,713.38 | IL-6 [2, 4]: 9,774.82 and 9,991.93 | IL-10 [2, 4]: 1,625.71 and 1,129.96 | IL-13 [2, 4]: 2,522.42 and 1,807.27 | IL-15 [2, 4]: 2,495.04 and 1,981.62 | IL-16 [2, 4]: 436.38 and 405.71 | LIGHT [2, 4]: 1,346.78 and 1,108.17 | Leptin [2, 4]: 7,238.71 and 4,886.99 | M-CSF [2, 4]: 740.98 and 684.01 | MCP-1 [2, 4]: 2,015.89 and 1,567.53 | MCP-2 [2, 4]: 694.78 and 694.07 | MCP-3 [2, 4]: 701.62 and 583.42 | MCP-4 [2, 4]: 231.02 and 276.62 | MIP-1-delta [2, 4]: 474.02 and 291.71 | MIP-3-alpha [2, 4]: 208.78 and 184.41 | NAP-2 [2, 4]: 371.35 and 343.68 | NT-3 [2, 4]: 571.57 and 427.51 | PARC [2, 4]: 474.02 and 363.80 | PDGF-BB [2, 4]: 2,635.37 and 2,005.09 | RANTES [2, 4]: 682.80 and 855.01 | SCF [2, 4]: 1,394.69 and 2,155.98 | SDF-1 [2, 4]: 326.85 and 616.95 | TGF-beta 1 [2, 4]: 1,827.65 and 1,849.18 | TGF-beta 3 [2, 4]: 294.34 and 343.68 | TNF-alpha [2, 4]: 2,609.70 and 2,167.71 | TNF-beta [2, 4]: 1,701.01 and 1,637.94 | bFGF [2, 4]: 1,226.99 and 1,241.09 | Acrp30 [2, 5]: 601.61 and 690.66 | AgRP [2, 5]: 77.82 and 89.00 | Angiogenin [2, 5]: 619.40 and 750.85 | AxI [2, 5]: 88.59 and 139.03 | BDNF [2, 5]: 763.51 and 951.45 | BLC [2, 5]: 742.24 and 476.36 | BMP-4 [2, 5]: 348.44 and 304.48 | BMP-6 [2, 5]: 571.23 and 641.05 | CK beta 8-1 [2, 5]: 22.48 and 21.54 | CNTF [2, 5]: 1,382.51 and 1,060.82 | EGF [2, 5]: 742.24 and 984.39 | Eotaxin [2, 5]: 301.87 and 253.80 | Eotaxin-3 [2, 5]: 934.12 and 847.56 | Flt-3 Ligand [2, 5]: 857.45 and 795.19 | Fractalkine [2, 5]: 792.02 and 456.51 | GCP-2 [2, 5]: 593.71 and 538.86 | GDNF [2, 5]: 436.75 and 444.68 | GM-CSF [2, 5]: 1,343.17 and 1,161.75 | I-309 [2, 5]: 708.52 and 743.25 | IFN-gamma [2, 5]: 1,202.67 and 1,037.60 | IGFBP-1 [2, 5]: 59.41 and 85.73 | IGFBP-2 [2, 5]: 2,671.90 and 2,414.72 | IGFBP-4 [2, 5]: 4,459.85 and 4,173.19 | IL-1alpha [2, 5]: 1,612.93 and 1,421.89 | IL-1beta [2, 5]: 352.05 and 312.08 | IL-1ra [2, 5]: 302.68 and 198.48 | IL-3 [2, 5]: 2,119.94 and 1,497.48 | IL-4 [2, 5]: 625.42 and 638.94 | IL-5 [2, 5]: 1,245.23 and 1,167.24 | IL-10 [2, 5]: 1,222.75 and 1,096.30 | IL-13 [2, 5]: 1,486.89 and 1,407.96 | IL-15 [2, 5]: 1,677.16 and 1,601.79 | IL-16 [2, 5]: 651.11 and 668.50 | Leptin [2, 5]: 1,234.39 and 1,091.65 | M-CSF [2, 5]: 852.63 and 867.83 | MCP-1 [2, 5]: 1,022.03 and 1,076.03 | MCP-3 [2, 5]: 1,184.61 and 1,255.50 | MCP-4 [2, 5]: 1,380.51 and 1,606.86 | MDC [2, 5]: 269.36 and 280.41 | MIG [2, 5]: 1,113.16 and 1,137.26 | MIP-1-delta [2, 5]: 491.75 and 322.22 | MIP-3-alpha [2, 5]: 1,602.09 and 1,399.93 | NT-3 [2, 5]: 316.73 and 275.76 | PARC [2, 5]: 352.85 and 353.04 | PDGF-BB [2, 5]: 517.84 and 597.56 | RANTES [2, 5]: 724.98 and 637.25 | SCF [2, 5]: 1,152.50 and 1,021.13 | TARC [2, 5]: 372.93 and 343.33 | TGF-beta 1 [2, 5]: 1,426.67 and 1,240.30 | TNF-alpha [2, 5]: 2,851.74 and 1,285.91 | TNF-beta [2, 5]: 1,049.33 and 1,026.62 | bFGF [2, 5]: 11,722.95 and 21,398.52 | Angiogenin, IGFBP-1 and EGF ([2]; cell conditioned media): Noticeable upregulation | proteins including IGFBP-1, TGFbeta-1 and TGFbeta-3 ([2]; cell lysates): upregulated | role in differentiation of hES cells cultured on MEFs to definitive endoderm [3]: does not appear to play a significant role | AFP expression ([3]; Wnt-3a added to 100 ng/ml activin A): increase in the expression of AFP that increases over time
